Target: T1, BdorOR13a/BdorOrco (Bactrocera dorsalis, UniProt A0A0G2UKH1)
T1 construct: gene OR13a; full-length 441-residue OR co-expressed with BdorOrco; pcDNA3.1(+) with mCherry reporter in HEK 293 cells (also pT7Ts in Xenopus oocytes); with Odorant receptor coreceptor
T1 sequence (A0A0G2UKH1 1-441): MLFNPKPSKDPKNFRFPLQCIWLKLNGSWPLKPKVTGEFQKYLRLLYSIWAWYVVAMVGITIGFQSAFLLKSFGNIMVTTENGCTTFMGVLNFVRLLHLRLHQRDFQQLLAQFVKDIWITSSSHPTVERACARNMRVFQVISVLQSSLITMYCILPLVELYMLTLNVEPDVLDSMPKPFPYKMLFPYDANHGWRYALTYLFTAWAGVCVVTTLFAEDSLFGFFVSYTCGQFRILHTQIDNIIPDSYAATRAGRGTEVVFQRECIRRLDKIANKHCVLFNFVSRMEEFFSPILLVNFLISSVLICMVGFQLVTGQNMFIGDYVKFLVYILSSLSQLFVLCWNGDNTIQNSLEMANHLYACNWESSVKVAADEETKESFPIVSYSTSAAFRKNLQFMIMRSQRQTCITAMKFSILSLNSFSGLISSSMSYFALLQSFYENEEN
T1 sequence (B2Z9Z0 1-473 partner): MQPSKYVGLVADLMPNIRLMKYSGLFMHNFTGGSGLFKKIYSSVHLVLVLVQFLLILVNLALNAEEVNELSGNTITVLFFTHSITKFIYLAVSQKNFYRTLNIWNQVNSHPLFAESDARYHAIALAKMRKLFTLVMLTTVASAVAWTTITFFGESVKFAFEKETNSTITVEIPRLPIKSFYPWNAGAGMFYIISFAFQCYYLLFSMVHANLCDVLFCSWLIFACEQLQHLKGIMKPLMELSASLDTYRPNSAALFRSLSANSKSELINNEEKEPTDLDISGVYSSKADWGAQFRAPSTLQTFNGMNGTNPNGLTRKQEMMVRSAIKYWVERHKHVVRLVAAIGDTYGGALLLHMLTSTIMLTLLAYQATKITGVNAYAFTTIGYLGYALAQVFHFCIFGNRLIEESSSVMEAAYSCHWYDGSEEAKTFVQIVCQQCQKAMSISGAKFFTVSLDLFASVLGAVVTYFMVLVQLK
Experiment: calcium imaging (Fluo-4 AM), HEK […] cells
Assay type: cell-based

EC50: 11.3 µM
SMILES: C=CC(O)CCCCC (stereo not shown) [1-octen-3-ol]
